According to PubChem BioAssay AID1259407 (Chemical Carcinogenesis Research Information System (CCRIS), 2018):
Active and inactive are the calls of the source. No rule for the calls is given here.

Tested on: CCRIS mutagenicity, Ames/micronucleus/aberration tests
Assay: CCRIS mutagenicity studies

For `C=CC(=O)OCCO`, the mutagenic call (End Point: In vitro chromosomal aberrations, Test System: Chinese hamster lung (CHL/IU) cells, Metabolic Activation: Rat, Liver, S9, Phenobarbital and 5,6-benzoflavone) was “active; positive (structural changes and ploidy)”, the mutagenic call (Test System: AMES SALMONELLA TYPHIMURIUM, Strain/Indicator: TA102, Metabolic Activation: RAT, LIVER, S-9, PHENOBARBITAL AND 5,6-BENZOFLAVONE, Method: STANDARD PLATE) was “inactive; negative” and the mutagenic call (Test System: AMES SALMONELLA TYPHIMURIUM, Strain/Indicator: TA2638, Metabolic Activation: RAT, LIVER, S-9, PHENOBARBITAL AND 5,6-BENZOFLAVONE, Method: STANDARD PLATE) was “inactive; negative”. For the same compound, the mutagenic call (Test System: Ames Salmonella typhimurium, Strain/Indicator: TA98, Metabolic Activation: None, Method: Preincubation) was “inactive; negative”, the mutagenic call (Test System: Ames Salmonella typhimurium, Strain/Indicator: TA98, Metabolic Activation: Rat, Liver, S9, Sodium phenobarbital and 5,6-benzoflavone (10%), Method: Preincubation) was “inactive; negative” and the mutagenic call (Test System: Ames Salmonella typhimurium, Strain/Indicator: TA100, Metabolic Activation: None, Method: Preincubation) was “inactive; negative”. The mutagenic call (Test System: Ames Salmonella typhimurium, Strain/Indicator: TA100, Metabolic Activation: Rat, Liver, S9, Sodium phenobarbital and 5,6-benzoflavone (10%), Method: Preincubation) was “inactive; negative”, the mutagenic call (Test System: Ames Salmonella typhimurium, Strain/Indicator: TA1535, Metabolic Activation: None, Method: Preincubation) was “inactive; negative” and the mutagenic call (Test System: Ames Salmonella typhimurium, Strain/Indicator: TA1535, Metabolic Activation: Rat, Liver, S9, Sodium phenobarbital and 5,6-benzoflavone (10%), Method: Preincubation) was “inactive; negative”. For the same compound, the mutagenic call (Test System: Ames Salmonella typhimurium, Strain/Indicator: TA1537, Metabolic Activation: None, Method: Preincubation) was “inactive; negative”, the mutagenic call (Test System: Ames Salmonella typhimurium, Strain/Indicator: TA1537, Metabolic Activation: Rat, Liver, S9, Sodium phenobarbital and 5,6-benzoflavone (10%), Method: Preincubation) was “inactive; negative” and the mutagenic call (Test System: E. COLI, Strain/Indicator: WP2 (PKM101), Metabolic Activation: RAT, LIVER, S-9, PHENOBARBITAL AND 5,6-BENZOFLAVONE, Method: STANDARD PLATE) was “active; positive”. The mutagenic call (Test System: E. COLI, Strain/Indicator: WP2 UVRA (PKM101), Metabolic Activation: RAT, LIVER, S-9, PHENOBARBITAL AND 5,6-BENZOFLAVONE, Method: STANDARD PLATE) was “active; positive”, the mutagenic call (Test System: E. coli, Strain/Indicator: WP2uvrA/pKM101, Metabolic Activation: None, Method: Preincubation) was “active; positive” and the mutagenic call (Test System: MOUSE LYMPHOMA, Strain/Indicator: L5178Y (TK+/TK-), Metabolic Activation: NONE, Method: SUSPENSION/PLATE) was “active; positive”.
For `Cc1cccc(OP(=O)(Oc2cccc(C)c2)Oc2cccc(C)c2)c1`, the mutagenic call (Test System: AMES SALMONELLA TYPHIMURIUM, Strain/Indicator: TA98, Metabolic Activation: HAMSTER, LIVER, S-9, AROCLOR 1254, Method: PREINCUBATION) was “inactive; negative”, the mutagenic call (Test System: AMES SALMONELLA TYPHIMURIUM, Strain/Indicator: TA98, Metabolic Activation: NONE, Method: PREINCUBATION) was “inactive; negative” and the mutagenic call (Test System: AMES SALMONELLA TYPHIMURIUM, Strain/Indicator: TA98, Metabolic Activation: RAT, LIVER, S-9, AROCLOR 1254, Method: PREINCUBATION) was “inactive; negative”. For the same compound, the mutagenic call (Test System: AMES SALMONELLA TYPHIMURIUM, Strain/Indicator: TA100, Metabolic Activation: HAMSTER, LIVER, S-9, AROCLOR 1254, Method: PREINCUBATION) was “inactive; negative”, the mutagenic call (Test System: AMES SALMONELLA TYPHIMURIUM, Strain/Indicator: TA100, Metabolic Activation: NONE, Method: PREINCUBATION) was “inactive; negative” and the mutagenic call (Test System: AMES SALMONELLA TYPHIMURIUM, Strain/Indicator: TA100, Metabolic Activation: RAT, LIVER, S-9, AROCLOR 1254, Method: PREINCUBATION) was “inactive; negative”. For the same compound, the mutagenic call (Test System: AMES SALMONELLA TYPHIMURIUM, Strain/Indicator: TA1535, Metabolic Activation: HAMSTER, LIVER, S-9, AROCLOR 1254, Method: PREINCUBATION) was “inactive; negative”, the mutagenic call (Test System: AMES SALMONELLA TYPHIMURIUM, Strain/Indicator: TA1535, Metabolic Activation: NONE, Method: PREINCUBATION) was “inactive; negative” and the mutagenic call (Test System: AMES SALMONELLA TYPHIMURIUM, Strain/Indicator: TA1535, Metabolic Activation: RAT, LIVER, S-9, AROCLOR 1254, Method: PREINCUBATION) was “inactive; negative”. For the same compound, the mutagenic call (Test System: AMES SALMONELLA TYPHIMURIUM, Strain/Indicator: TA1537, Metabolic Activation: HAMSTER, LIVER, S-9, AROCLOR 1254, Method: PREINCUBATION) was “inactive; negative”, the mutagenic call (Test System: AMES SALMONELLA TYPHIMURIUM, Strain/Indicator: TA1537, Metabolic Activation: NONE, Method: PREINCUBATION) was “inactive; negative” and the mutagenic call (Test System: AMES SALMONELLA TYPHIMURIUM, Strain/Indicator: TA1537, Metabolic Activation: RAT, LIVER, S-9, AROCLOR 1254, Method: PREINCUBATION) was “inactive; negative”.
